Results from patent US20240245787A1, “E3 LIGASE BINDERS AND USES THEREOF” (President and Fellows of Harvard College, priority 2021, published 2024).
Read-outs that look alike come from different tables or passages of the source. One block for each compound: values may come before it. No end group written: not given here.

Experiments:
[1] = molecular target: T1, BRD4 with FLAG-CRBN (Homo sapiens, UniProt O60885+Q96SW2); assay: In vitro FLAG-tag co-immunoprecipitation in HEK-CRBN lysates; format: binding; settings: 1 μM, 2 h
[2] = tested on: GST-BRD4 and His-CRBN/DDB1; assay: AlphaScreen for ternary complex formation; format: binding; settings: recombinant GST-BRD4 and His-CRBN/DDB1
Procedure: AlphaScreen buffer (3× stock solution: 150 mM HEPES pH 7.4, 600 mM NaCl, 0.3% w/v BSA, 3 mM TCEP) was prepared fresh for each experiment. A 3× stock solution of each compound (60 μM, 3% DMSO final/1× AlphaScreen buffer) and a series of 2-fold serial dilutions, in 3% DMSO/1× AlphaScreen buffer, were prepared fresh for each experiment. A solution of 750 nM His6-CRBN/DDB1, 375 nM GST-BRD4/1× AlphaScreen buffer (5 μL) was added to each well of a 384-well Optiplate. Then, compound (5 μL) was added, with each concentration assayed in triplicate. As a positive control, 10 μL 100 nM GST-His6 was added to three wells. The plate was sealed with TopSeal A, centrifuged (200× g, 25° C., 1 min), and incubated at 25° C. for 1 h. Under low light, the seal was removed and 5 μL of 60 μg/mL AlphaScreen Glutathione Donor beads, 60 μg/mL AlphaLISA Nickel Chelate […] beads/1× AlphaScreen buffer was added to each well. The plate was sealed with TopSeal A, centrifuged (200× g, 25° C., 1 min), and incubated at 25° C. for 1 h. The seal was removed and the plate was analyzed. Prior to analysis, the plate reader was calibrated with a plate containing 15 μL of 20 μg/mL Omnibeads/1× AlphaScreen buffer in the corner wells. Analysis was performed in Graphpad Prism, using the vehicle-treated wells as the baseline, fitting the signal from each compound to a Gaussian curve, and calculating the area under the curve (AUC).

[3] = molecular target: CRBN/DDB1 in the presence of BD1 domain of BRD4 (Homo sapiens, UniProt O60885+Q96SW2); assay: biochemical
[4] = molecular target: CRBN/DDB1 in the presence of BD2 domain of BRD4 (Homo sapiens, UniProt O60885+Q96SW2); assay: biochemical
[5] = molecular target: BRD4 (Homo sapiens, UniProt O60885)
[6] = molecular target: CRL4^CRBN complex (Homo sapiens, UniProt Q96SW2); assay: In vitro ubiquitylation of C-terminally tagged proteins; format: biochemical; settings: CRL4^CRBN complex isolated from HEK-CRBN cells, 30° C., 90 min
[7] = molecular target: T1, BRD4 with FLAG-CRBN; assay: In vivo FLAG-tag co-immunoprecipitation in HEK-CRBN cells; format: cell-based; settings: 25 μM, 2 h, 1 μM MLN4924
[8] = tested on: MM.1S cells; assay: Cell viability (MTT) assay; format: cell-based; settings: Homo sapiens, MM1.S, 120 h, 5 d, read-out: IC50 (anti-proliferative effect)
Procedure: 2.0×10^4 MM.1S cells were seeded in each well of a 96-well plate containing 100 μL RPMI160 media supplemented with 10% FBS and 1× penicillin-streptomycin. The compound of interest was added to each well to a final concentration of 10 nM-100 μM from 100× stock solutions in 4% DMSO/PBS (1 μL). Samples were incubated at 37° C., 5% CO2 for 5 days. Each well was treated with 3-(4,5-Dimethylthiazol-2-yl)-2,5-diphenyltetrazolium (MTT, 4 mg/mL, 10 μL), and the treated plate was incubated at 37° C., 5% CO2 for 3 h. The formazan crystals were solubilized by the addition of 100 μL of 10% SDS, 0.01 M HCl per well, and the plate was allowed to incubate at 37° C. overnight. The absorbance at 570 nm was measured to quantify the formazan generated in each well. The blank was defined by wells containing media and MTT reagent without any cells. For each treatment well, the cell viability was calculated by subtracting the blank value and normalizing to the average absorbance of the vehicle control wells (cells treated with 4% DMSO/PBS).

[9] = tested on: IKZF1; assay: Global quantitative proteomics of MM.1S cells; format: cell-based, human (Homo sapiens); settings: 10 μM, 10 h
[10] = FIG. 22C
Description: Table printed on a drawing sheet, FIG. 22C
First reader's note: Per the description this is an in vitro permeability assay in Caco-2 cells; Boc-FcQ and Boc-FcN are Boc-protected dipeptide cyclic imides (cyclimids).

[11] = tested on: IKZF1; assay: Western blot of IKZF1 levels in MM.1S cells; format: cell-based; settings: 10 μM
[12] = read-out: KD [ternary] (nM) | BD1
[13] = read-out: KD [ternary] (nM) | BD2

CRBN/DDB1 in the presence of BD2 domain of BRD4, sequence (Q96SW2 whole entry, looked up, other chains not shown, the tested form may be a part): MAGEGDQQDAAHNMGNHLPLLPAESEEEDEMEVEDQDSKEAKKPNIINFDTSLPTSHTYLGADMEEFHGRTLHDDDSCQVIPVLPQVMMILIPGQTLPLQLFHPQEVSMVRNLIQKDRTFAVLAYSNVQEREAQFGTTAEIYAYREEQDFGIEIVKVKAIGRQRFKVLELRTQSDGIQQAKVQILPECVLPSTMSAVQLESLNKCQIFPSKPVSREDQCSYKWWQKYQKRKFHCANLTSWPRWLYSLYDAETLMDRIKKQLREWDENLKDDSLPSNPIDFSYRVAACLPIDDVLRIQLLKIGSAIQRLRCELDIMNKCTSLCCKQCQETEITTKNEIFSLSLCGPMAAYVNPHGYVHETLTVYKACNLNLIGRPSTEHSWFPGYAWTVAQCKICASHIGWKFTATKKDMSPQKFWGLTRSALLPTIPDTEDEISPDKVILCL

Compound: Cc1sc2c(c1C)C(c1ccc(Cl)cc1)=N[C@@H](CC(=O)NCCCCCCCCC(=O)N[C@@H](CC(=O)O)C(=O)N[C@H]1CCC(=O)NC1=O)c1nnc(C)n1-2 [JQ1-DcQ]
co-immunoprecipitation of BRD4 with FLAG-CRBN in lysates [1]: equivalent co-immunoprecipitation of BRD4 with FLAG-CRBN

Compound: Cc1sc2c(c1C)C(c1ccc(Cl)cc1)=N[C@@H](CC(=O)NCCCCCCCCC(=O)N[C@H]1CCC(=O)NC1=O)c1nnc(C)n1-2 [JQ1-cQ]
ternary complex formation (AlphaScreen signal / relative area under the curve normalized to dBET6) [2]: ternary complex formation equivalent to the active JQ1-GcQ
Kd [3]: 245 nM
Kd [4]: 267 nM
degradation of BRD4 (functional degrader or not) [5]: inactive

in vitro ubiquitylation of tagged GFP by CRL4^CRBN complex [6]: no modification
Compound: GFP-FQ: "GFPs tagged with uncyclized glutamine and asparagine, GFP-FQ and GFP-FN" (TGGSLPETFQ; not fully specified (N-terminus))

co-immunoprecipitation of BRD4 by FLAG-CRBN in cells [7]: readily co-immunoprecipitated
Compound: Cc1sc2c(c1C)C(c1ccc(Cl)cc1)=N[C@@H](CC(=O)NCCCCCCCCC(=O)N[C@@H](Cc1ccccc1)C(=O)N[C@H]1CCC(=O)NC1=O)c1nnc(C)n1-2 [JQ1-FcQ]
ternary complex formation (AlphaScreen signal / relative area under the curve normalized to dBET6) [2]: stronger ternary complex than dBET6

Compound: Cc1sc2c(c1C)C(c1ccc(Cl)cc1)=N[C@@H](CC(=O)NCCCCCCCCC(=O)N[C@@H](CCC(=O)O)C(=O)N[C@H]1CCC(=O)NC1=O)c1nnc(C)n1-2 [JQ1-EcQ]
co-immunoprecipitation of BRD4 with FLAG-CRBN in lysates [1]: equivalent co-immunoprecipitation of BRD4 with FLAG-CRBN

Compound: Cc1sc2c(c1C)C(c1ccc(Cl)cc1)=N[C@@H](CC(=O)NCCCCCCCCC(=O)N[C@H]1CC(=O)NC1=O)c1nnc(C)n1-2 [JQ1-cN]
Kd [3]: 538 nM
Kd [4]: 390 nM

in vitro ubiquitylation of tagged GFP by CRL4^CRBN complex [6]: no modification
Compound: GFP-FN: "GFPs tagged with uncyclized glutamine and asparagine, GFP-FQ and GFP-FN" (TGGSLPETFN; not fully specified (N-terminus))

Kd [3, 12]: 5 nM
Kd [4, 13]: 277 nM
Compound: Cc1sc2c(c1C)C(c1ccc(Cl)cc1)=N[C@@H](CC(=O)NCCCCCCCCC(=O)N[C@@H](Cc1ccc(O)cc1)C(=O)N[C@H]1CCC(=O)NC1=O)c1nnc(C)n1-2 [JQ1-YcQ]

co-immunoprecipitation of BRD4 by FLAG-CRBN in cells [7]: readily co-immunoprecipitated
Compound: Cc1sc2c(c1C)C(c1ccc(Cl)cc1)=N[C@@H](CC(=O)NCCCCCCCCC(=O)N[C@@H](Cc1ccccc1)C(=O)N[C@H]1CC(=O)NC1=O)c1nnc(C)n1-2 [JQ1-FcN]
ternary complex formation (AlphaScreen signal / relative area under the curve normalized to dBET6) [2]: stronger ternary complex than dBET6

Compound: Nc1cccc2c1CN(C1CCC(=O)NC1=O)C2=O (centres unmarked) [lenalidomide, Lenalidomide, reference compound]
IC50 [8]: 31600 nM

Compound: CC(C)(C)OC(=O)NC(Cc1ccccc1)C(=O)NC1CCC(=O)NC1=O (centres unmarked) [Boc-FcQ]
additional substrates degraded (global proteomics) [9]: no additional substrates were degraded
degradation of IKZF1 (global proteomics) [9]: not susceptible to degradation
IC50 [8]: > 100000 nM
Papp (B-A) (10^-6, cm/s) [10]: 18.00 10^-6, cm/s
Recovery (%)BL-AP [10]: 91.46%

Compound: Nc1cccc2c1CN(C1CCC(=O)NC1=O)C2=O (centres unmarked) [lenalidomide, Lenalidomide]
Papp (A-B) (10^-6, cm/s) [10]: 1.22 10^-6, cm/s
Papp (B-A) (10^-6, cm/s) [10]: 4.41 10^-6, cm/s

Kd [4, 13]: 76 nM
Compound: Cc1sc2c(c1C)C(c1ccc(Cl)cc1)=N[C@@H](CC(=O)NCCCCCCCCC(=O)N[C@@H](C)C(=O)N[C@H]1CCC(=O)NC1=O)c1nnc(C)n1-2 [JQ1-AcQ]

Compound: Nc1cccc2c1C(=O)N(C1CCC(=O)NC1=O)C2=O (centres unmarked) [pomalidomide, Pomalidomide, reference compound]
degradation of IKZF1 (global proteomics) [9]: selective degradation of the substrate IKZF1
degradation of IKZF1 (Western blot) [11]: degraded

Kd [3, 12]: 381 nM
Kd [4, 13]: 335 nM
Compound: Cc1sc2c(c1C)C(c1ccc(Cl)cc1)=N[C@@H](CC(=O)NCCCCCCCCC(=O)N1CCC[C@H]1C(=O)N[C@H]1CCC(=O)NC1=O)c1nnc(C)n1-2 [JQ1-PcQ]
